From patent publication US8574551B2, “Compositions useful for reducing nephrotoxicity and methods of use thereof” (Verrow Pharmaceuticals, Inc., priority 2005, dated 2013)

Columns and labels:
[1] = system: kidney; experiment: Methotrexate induced nephrotoxicity model in mice, HPβCD; format: in vivo, C57BL/6 mice; details: normal mice; MTX 80 mg/kg single IV injection alone; 24 hrs
Method: To determine the protective effect of other cyclodextrin molecules, 2-hydroxypropyl β-cyclodextrin (HPβCD) was evaluated. Female C57BL/6 mice were injected intravenously with a single dose of methotrexate 80 mg/kg, IV, or methotrexate+HPβCD, IV, at methotrexate to HPβCD molar ratios of 1:1 and 1:0.5. The animals were sacrificed after 24 hrs. The development of glomerular and tubulointerstitial injury after methotrexate and protection by methotrexate+HPβCD was evaluated by means of assessment of renal histology by light microscopy. Leukovorin was given 4 hrs and after 18 hrs. Urine was not alkalinized.
Paraffin sections of […] were cut and stained with H&E and periodic acid Schiff (PAS). They were examined by light microscopy and scored in a blinded fashion. Five arbitratary fields at 40× magnification in each sections was assessed for the parameters, and scored according to the criteria, set forth in Example 7.

[2] = system: kidney; experiment: Captisol-MTX time studies, kidney histopathology at 24 hrs, 48 hrs, 1 week; format: in vivo, mice
Method: For light microscopic investigation, kidneys were fixed in 10% buffered formalin and processed routinely for paraffin embedding. Tissue sections of 5 micron meter were stained with hematoxylin and eosine and examined under a Nikon coolpix light microscope, photography was done with a Nikon Coolpix camera. The severity of total kidney damage was evaluated by a semiquantitative measurement of damage as described below. Each tissue section of the kidney was assessed for degeneration of glomerular structure, glomerular crowding and congestion, dilation of bowman space, degeneration of proximal and distal tubules, and dilation of renal tubules, vascular congestion, and inflammatory cell infiltration. For glomerular atrophy, glomeruli that contained more than 20 nuclei were scored “0”, and those containing less than 10 nuclei were scored “4.” Intermediate stages were 1, 2 and 3. Other criterion was scored on a 0-3 scale: 0=none; 1=mild; 2=moderate; and 3=severe. The microscopic score of each tissue was calculated as the sum of the scores given to each criterion and at least 100 nephrons (glomeruli plus surrounding tubules) were analyzed per section. See, e.g., Bhat et al., PNAS (2003) 100(7); Sener et al., Cell Biol Toxicol (2006) 22:[…].

[3] = system: kidney; experiment: Histopathological changes in the kidney after single bolus intravenous MTX with or without captisol at different molar ratios; format: in vivo; details: normal mice, 48 hours
Method: A study of histopathological changes in the kidney after single bolus intravenous MTX with or without concurrent captisol at different molar ratios was performed.
MTX solutions were prepared as follows. Solution A (24 mg/ml (53 mM)) was prepared from stock solution of 25 mg/ml (Methotrexate from Bedford laboratories) in sterile PBS (total volume 6 mL). Solution B was prepared by diluting 3 ml of Solution A to 1:1.33 in PBS to obtain a working dilution of 18 mg/mL (39.6 mM), pH 7.4. Solution C was prepared by diluting 2 mL of solution A 1:2 to obtain a working dilution of 12 mg/mL (26.4 mM), pH 7.2.
MTX+Captisol solutions were prepared as follows. Solution D was made by adding 57.32 mg Captisol to an aliquot of 500 micro liter of solution A (molar ratio 1:1, neutral pH). […]
MTX and Captisol were administered to 8 groups of mice (Groups I-VIII; see Table 3) via tail vein by a single injection in a volume of 100-120 μL. […] Clinical symptoms, body weights were recorded. […]
Semi quantitative estimates of total kidney damage in mice treated with MTX 80 mg/kg, 120 mg/kg, and a combination of MTX+Captisol at MTX to Captisol molar ratio of 1:1 and 1:0.5, are shown in FIG. 4. […] Hematoxylin and eosin sections of paraffin embedded kidney were analyzed microscopically for extent of renal damage. Data is expressed as mean±SEM. […]

[4] = MTX-captisol solubility: rate of precipitation of MTX at pH 5.0 in presence and absence of captisol; format: physicochemical; details: for Amount of MTX in solution 1:25 dilution: diluted sample, pH 5.0, MTX added 0.91 mg/ml; for conc. of MTX (molarity of mtx): pH 5.0, Concentration of MTX added 0.002M
Method: Solubility studies were performed to determine whether Captisol could prevent the precipitation of MTX over a time period greater than transit time of MTX through the kidney (i.e., less than 2 minutes). Each solution was acidified with HCl, centrifuged and aliquots of the supernatant removed as a function of time, and the concentration of MTX in solution was measured spectrophometrically.

[5] = system: kidney; experiment: Renal pathology in EAE mice after MTX or MTX+Captisol; format: in vivo, C57BL6 mice; details: MTX 40 mg/kg single intravenous bolus, no Captisol
Method: Injection volume were between 100-120 μl. […] Leukovorin, the active metabolite of folic acid, is typically given with methotrexate in anti-cancer chemotherapy to help protect normal cells. Mice were scored daily for disease severity and then sacrificed on day 10 of disease. Brain, kidney and spleen were formalin fixed. […] For light microscopic investigation, kidneys were fixed in 10% buffered formalin and processed routinely for paraffin embedding. Tissue sections of 5 micron meter were stained with hematoxylin and eosine and examined under Nikon coolpix light microscope. The severity of total kidney damage was evaluated by a semiquantitative measurement of damage as described. Each tissue section of the kidney was assessed for degeneration of glomerular structure, glomerular crowding and congestion, dilation of bowman space, degeneration of proximal and distal tubules, and dilation of renal tubules, vascular congestion, and inflammatory cell infiltration. For glomerular atrophy, glomeruli that contained more than 20 nuclei were scored “0”, and those containing less than 10 nuclei were scored “4.” Intermediate stages were 1, 2 and 3. Other criterion was scored on a 0-3 scale: 0=none; 1=mild; 2=moderate; 3=severe. […]

kidney tissue histopathological changes (FIG. 5) ([2]; normal mice, MTX 160 mg/kg single iv bolus, 24 and 48 hours): extensive histopathological changes
Amount of MTX in solution 1:25 dilution ([4]; 5 min after adding acid): 3.449 µg/mL
Amount of MTX in solution 1:25 dilution ([4]; 10 min after adding acid): 2.509 µg/mL
Amount of MTX in solution 1:25 dilution ([4]; 15 min after adding acid): 3.177 µg/mL
Amount of MTX in solution 1:25 dilution ([4]; 20 min after adding acid): 3.844 µg/mL
Amount of MTX in solution 1:25 dilution ([4]; 30 min after adding acid): 3.807 µg/mL
Amount of MTX in solution 1:25 dilution ([4]; 40 min after adding acid): 3.3 µg/mL
Amount of MTX in solution 1:25 dilution ([4]; 50 min after adding acid): 3.412 µg/mL
Amount of MTX in solution 1:25 dilution ([4]; 60 min after adding acid): 3.906 µg/mL
conc. of MTX (molarity of mtx) ([4]; 5 min after adding acid): 189.7 µM
conc. of MTX (molarity of mtx) ([4]; 10 min after adding acid): 138 µM
conc. of MTX (molarity of mtx) ([4]; 15 min after adding acid): 174.7 µM
conc. of MTX (molarity of mtx) ([4]; 20 min after adding acid): 211.4 µM
conc. of MTX (molarity of mtx) ([4]; 30 min after adding acid): 209.4 µM
conc. of MTX (molarity of mtx) ([4]; 40 min after adding acid): 181.5 µM
conc. of MTX (molarity of mtx) ([4]; 50 min after adding acid): 187.6 µM
conc. of MTX (molarity of mtx) ([4]; 60 min after adding acid): 214.8 µM
SMILES: CN(Cc1cnc2nc(N)nc(N)c2n1)c1ccc(C(=O)N[C@@H](CCC(=O)O)C(=O)O)cc1 [MTX, N-[4-[[(2,4-diamino-6pteridinyl)methyl]methylamino]benzoyl]-L-glutamicacid]
renal histology [1]: significant histopathological changes in the kidney
kidney histopathology (H&E) ([2]; MTX 160 mg/kg alone, 24 hours post injection): degeneration of glomerular structure and dilation of Bowman's space, degeneration of proximal and distal tubules and inflammatory cell infiltration
kidney histopathology (H&E) ([2]; MTX 160 mg/kg i.v. alone, 48 hours post injection): degeneration of glomerular structure, dilation of Bowman's space, dilation of proximal and distal tubules, degeneration of proximal and distal tubules and inflammatory cell infiltration
kidney histopathology (H&E) ([2]; MTX 160 mg/kg single i.v. bolus alone, 1 week): degeneration of proximal and distal tubules with occasional glomerular atrophy or crowding
kidney histopathology (H&E) ([3]; MTX 80 mg/kg iv bolus alone): dilation of tubules, degenerative changes in the tubules, hypercellularity in the glomerulus and atypical collection of interstitial cells and convulated tubules
kidney histopathology (H&E) ([3]; MTX 120 mg/kg IV alone): glomerular atrophy, degeneration of basement membrane on bowman capsule, degenerative changes in the tubules, hypercellularity in the glomerulus and infiltration of mononuclear cells
kidney sections, morphological changes [5]: dilation of renal tubules and degeneration of proximal tubules
